# Patent US20260317374A1, “Carrier Peptide Fragment and Use Thereof” (TOAGOSEI CO., LTD., priority 2022, published 2026)
# FAM = 5(6)-carboxyfluorescein
# Test system: NSC-34 cells (mouse motor neuron-like hybrid cell line)
# Assay: Cell membrane permeability of sample in NSC-34 cells by flow cytometry
# Type: cell-based
# Details: for median fluorescence intensity (MFI): 10 μM sample (FAM concentration 10 μM), 0.5% DMSO, 20 hours at 37° C., 5% CO2, detector FL2
# Description: In Example 1, a construct shown in Table 1 was prepared as a sample 1. Specifically, a construct formed of a synthetic peptide with the amino acid sequence set forth in SEQ ID No.: 1, in which an α-amino group of a lysine residue of an N-terminus is acetylated, and FAM (C21H12O7: 5(6)-carboxyfluorescein, molecular weight 376.3, excitation wavelength 495 nm, fluorescence wavelength 520 nm) corresponding to fluorescent dye bonded to the C-terminus of the synthetic peptide was prepared. The construct was diluted in dimethyl sulfoxide (DMSO) to prepare a sample solution 1 with a sample concentration of 2 mM.
# As the eukaryotic cells, NSC-34 cells (mouse motor neuron-like hybrid cell line) were used and the cell membrane permeability of the sample 1 was evaluated. In Example 1, the prepared sample solution 1 was used, and in Example 2, the FAM solution was used.
# The NSC-34 cell was cultured in 10% fetal bovine serum (FBS)-containing Dulbecco's modified Eagle's medium (DMEM (Cat No. 044-29765, manufactured by FUJIFILM Wako Pure Chemical Corporation)), which is a culture medium.
# The NSC-34 cell that adhered to a culture plate was cleaned with PBS and then, a 0.25%-trypsin/EDTA solution was added thereto, and incubation was performed for three minutes at 37° C. After the incubation, the aforementioned 10% FBS-containing DMEM was added to deactivate trypsin and then, five-minute centrifugal separation was performed at 150×g to precipitate the cells. After the supernatant generated by the centrifugal separation was removed, the 10% FBS-containing DMEM was added to the precipitate (cell pellet) to prepare a cell suspension of about 1×10^5 cells/mL. The cell suspension was added by 1 mL to a well of a commercially available six-hole (well) plate (manufactured by AGC TECHNO GLASS Co., Ltd.) so as to seed the cell (about 1×10^5 cells/well). In addition, the 2 mM sample solution 1 was diluted with the 10% FBS-containing DMEM to prepare the sample solution 1 in which the concentration of the sample 1 was 20 μM. Then, 1 mL of the 20 μM sample solution 1 was added to the well (that is, so that the concentration of the sample 1 became […] and the DMSO concentration became 0.5% in the culture solution in the well). After that, the cell was incubated for 20 hours at 37° C. under a 5% CO2 condition.
# After the 20-hour incubation, the culture supernatant was removed from the well and the cells in the well were cleaned twice with 1 mL of PBS. Next, 100 μL of the 0.25% trypsin/EDTA solution was added to the well and the incubation was performed for three minutes at 37° C. After the incubation, 900 µL of the 10% FBS-containing DMEM was added to the well to deactivate the trypsin. Subsequently, the cell suspension in the well was transferred to a tube and the cells were collected. After that, pre-washing was performed additionally, so that the cells remaining in the well were collected in the tube. This tube was subjected to five-minute centrifugal separation at 4° C. under a condition of 210×g. After the centrifugal separation, the supernatant was removed and the precipitate (cell pellet) was suspended (cleaned) with 1 mL of PBS, which was followed by the centrifugal separation under the same condition as that described above. […]
# Regarding the obtained cells (cell pellet), the cell membrane permeability of the sample 1 was analyzed using a flow cytometer. […]
Substance,median fluorescence intensity (MFI),"histogram position (flow cytometer, FIG. 1) (Example 1 compared to Example 2 (FAM), 20 hours)","cell membrane permeability (construct vs FAM alone, FIG. 1)",cell membrane permeability of carrier peptide fragment (concluded from the FAM construct (Example 1 vs Example 2))
Example 1: synthetic peptide of SEQ ID No.: 1 with N-terminal lysine α-amino group acetylated and FAM bonded to the C-terminus (Ac-KFRAQRRW-{FAM}),15.8,shifted to the right side compared to the histogram according to Example 2,higher cell membrane permeability than FAM alone,–
"5(6)-carboxyfluorescein [Example 2, reference compound]",7.58,–,–,–
SEQ ID No.: 1: carrier peptide fragment; synthetic peptide with amino acid sequence KFRAQRRW,–,–,–,achieves the cell membrane permeability
